The target in this test is canine TRPM8 (Canis lupus familiaris, UniProt Q1A7N1). Description: In Vitro Canine TRPM8 Functional Assay (Ca2+ fluorescence, icilin activation). The conditions noted are these: for inhibition at 0.2 µM / % Inh @ 0.2 (μM): compound at 0.2 μM, canine TRPM8, icilin activation; for inhibition at 0.2 µM: read-out: % Inh @ 0.2; for IC50: HEK293 cells stably expressing canine TRPM8, icilin activation, eight-point dose-response, read-out: IC50. It counts as cell-based. The method in brief: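 Readout is the intracellular Ca2+ fluorescence change, measured by FLIPR or FDSS, in HEK293 cells stably expressing canine TRPM8. Potency (EC50 or IC50) is fitted from eight concentrations averaged over quadruplicate wells.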
Chain of canine TRPM8 (Q1A7N1 1-1104): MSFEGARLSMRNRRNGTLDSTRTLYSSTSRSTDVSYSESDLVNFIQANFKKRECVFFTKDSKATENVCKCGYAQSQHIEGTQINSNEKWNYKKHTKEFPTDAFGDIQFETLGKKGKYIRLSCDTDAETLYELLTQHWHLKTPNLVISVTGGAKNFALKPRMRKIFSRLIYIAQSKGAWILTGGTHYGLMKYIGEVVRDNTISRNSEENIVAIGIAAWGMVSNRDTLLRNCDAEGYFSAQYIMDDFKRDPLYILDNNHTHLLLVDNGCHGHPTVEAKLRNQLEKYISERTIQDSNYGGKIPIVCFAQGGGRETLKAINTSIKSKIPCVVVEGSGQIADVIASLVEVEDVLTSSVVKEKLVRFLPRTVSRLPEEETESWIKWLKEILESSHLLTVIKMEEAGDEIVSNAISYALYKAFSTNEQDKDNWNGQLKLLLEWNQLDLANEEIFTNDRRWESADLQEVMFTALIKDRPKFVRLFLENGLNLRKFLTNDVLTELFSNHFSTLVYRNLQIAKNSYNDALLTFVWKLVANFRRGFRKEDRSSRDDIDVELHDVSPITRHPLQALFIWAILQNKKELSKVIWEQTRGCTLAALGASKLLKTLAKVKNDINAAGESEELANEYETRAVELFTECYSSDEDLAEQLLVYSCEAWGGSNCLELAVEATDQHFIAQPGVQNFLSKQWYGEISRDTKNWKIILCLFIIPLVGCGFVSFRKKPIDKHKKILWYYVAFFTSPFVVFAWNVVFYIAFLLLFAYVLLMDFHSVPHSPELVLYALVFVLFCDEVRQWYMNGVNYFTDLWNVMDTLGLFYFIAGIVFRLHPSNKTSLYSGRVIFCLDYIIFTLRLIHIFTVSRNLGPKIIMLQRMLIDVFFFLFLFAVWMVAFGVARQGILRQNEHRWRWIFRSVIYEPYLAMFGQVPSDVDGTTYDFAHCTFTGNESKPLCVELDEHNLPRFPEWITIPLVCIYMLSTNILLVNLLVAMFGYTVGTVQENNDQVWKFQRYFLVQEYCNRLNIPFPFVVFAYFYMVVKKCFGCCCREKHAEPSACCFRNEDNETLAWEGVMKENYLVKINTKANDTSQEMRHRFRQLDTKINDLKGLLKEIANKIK

For `CN(C)S(=O)(=O)c1cccc(S(=O)(=O)N(CCC(F)(F)F)c2cc3ccccc3s2)c1` [Compound 461, N-(Benzo[b]thiophen-2-yl)-N-(3,3,3-trifluoro-propyl)-3-dimethylsulfamoyl-benzenesulfonamide], the inhibition at 0.2 µM stood at 30%.

Turning to `CN(C)S(=O)(=O)c1cccc(S(=O)(=O)N(Cc2ccc(F)c(C(F)(F)F)c2)c2cc3ccccc3s2)c1` [Compound 462, N-(Benzo[b]thiophen-2-yl)-N-(4-fluoro-3-trifluoromethyl-benzyl)-3-N′,N′-dimethylsulfamoyl-benzenesulfonamide], the “% Inh @ 0.2 (μM)” value stood at 22%.

`CC(C)(O)C1=C(N(Cc2ccc(F)c(C(F)(F)F)c2)S(=O)(=O)c2ccccc2)S(=O)(=O)c2ccccc21` [Compound 463, N-(4-Fluoro-3-trifluoromethyl-benzyl)-N-[3-(1-hydroxy-1-methyl-ethyl)-1,1-dioxo-benzo[b]thiophen-2-yl]-benzenesulfonamide]: the 50% inhibitory concentration (IC50) is 26 nM and the inhibition at 0.2 µM amounted to 101%.

With `CC(O)C1=C(N(Cc2ccc(F)c(F)c2)S(=O)(=O)c2ccccc2)S(=O)(=O)c2ccccc21` (centres unmarked) [Compound 464, N-(3,4-Difluoro-benzyl)-N-[3-(1-hydroxy-ethyl)-1,1-dioxo-benzo[b]thiophen-2-yl]-benzenesulfonamide], the IC50 is 7 nM and the inhibition at 0.2 µM stood at 102%.

As for `CCCCN(c1sc2ccccc2c1C(N)=O)S(=O)(=O)c1ccc(C(=O)OC)cc1` [Compound 465, N-(Butyl)-N-(3-carbamoyl-benzo[b]thiophen-2-yl)-4-carbomethoxy-benzenesulfonamide], the IC50 came out at 63 nM and the inhibition at 0.2 µM stood at 90%.

For the compound `CCCCN(c1sc2ccccc2c1C(=O)NC)S(=O)(=O)c1ccc(C(=O)OC)cc1` [Compound 466, N-(Butyl)-N-(3-methyl-carbamoyl-benzo[b]thiophen-2-yl)-4-carbomethoxy-benzenesulfonamide], the “% Inh @ 0.2 (μM)” value worked out at 66%.

For `CCCCN(c1sc2ccccc2c1C(=O)N(C)C)S(=O)(=O)c1ccc(C(=O)OC)cc1` [Compound 467, N-(Butyl)-N-(3-dimethyl-carbamoyl-benzo[b]thiophen-2-yl)-4-carbomethoxy-benzenesulfonamide], the IC50 came out at 20 nM and the “% Inh @ 0.2 (μM)” value is listed as 100%.

With `CCCCN(c1sc2ccccc2c1C(N)=O)S(=O)(=O)c1ccc(C(=O)O)cc1` [Compound 468, N-(Butyl)-N-(3-carbamoyl-benzo[b]thiophen-2-yl)-4-carboxy-benzenesulfonamide], the inhibition at 0.2 µM worked out at 16%.

As for `CCCCN(c1sc2ccccc2c1C(=O)N(C)C)S(=O)(=O)c1ccc(C(=O)O)cc1` [Compound 469, N-(Butyl)-N-(3-dimethylcarbamoyl-benzo[b]thiophen-2-yl)-4-carboxy-benzenesulfonamide], the inhibition at 0.2 µM came out at 13%.

For `CCCCN(c1cc2ccccc2s1)S(=O)(=O)c1ccc(C2=NOS(=O)N2)cc1` (centres unmarked) [Compound 470, N-(Benzo[b]thiophen-2-yl)-N-(butyl)-4-(3H-[1,2,3,5]oxathiadiazole-2-oxide)-benzenesulfonamide], the “% Inh @ 0.2 (μM)” value is on record as 15%.

Consider `CCCCN(c1cc2ccccc2s1)S(=O)(=O)c1ccc(C(N)=NO)cc1` [Compound 471, N-(Benzo[b]thiophen-2-yl)-N-(butyl)-4-N-hydroxy-benzamidinesulfonamide], for which the IC50 was 59 nM and the “% Inh @ 0.2 (μM)” value was found to be 97%.

Turning to `CCCCN(c1cc2ccccc2s1)S(=O)(=O)c1ccc(C(N)=NC(=O)CO)cc1` [Compound 472, N-(Benzo[b]thiophen-2-yl)-N-(butyl)-4-N-hydroxyacetyl-benzamidine sulfonamide], the IC50 is 40 nM and the “% Inh @ 0.2 (μM)” value was found to be 88%.

As to `CCCCN(c1sc2ccccc2c1Br)S(=O)(=O)c1ccc(C(N)=NO)cc1` [Compound 473, N-(3-Bromo-benzo[b]thiophen-2-yl)-N-(butyl)-4-N-hydroxy-benzamidinesulfonamide], the IC50 came to 9 nM and the “% Inh @ 0.2 (μM)” value was 102%.

Values taken from US9434711B2 (Janssen Pharmaceutica, NV, priority 2007, dated 2016).
